Where a name gives a salt, the structure may show the parent alone.
Key:
[1] = test system: A. baumannii (Ab); test: Broth microdilution MIC, A. baumannii; type: cell-based; details: Acinetobacter baumannii, read-out: Ab + bicarb 25 (MIC)
Protocol: (§1) A certified BSL-2 laboratory was used for testing. Compounds were evaluated using the broth microdilution minimum inhibitory concentration (MIC) and minimum bactericidal concentration (MBC) assays defined by Clinical and Laboratory Standards Institute (CLSI) in the M26-A guideline against S. aureus (Sa), E. coli (Ec), K. pneumoniae (Kp), A. baumannii (Ab), E. faecalis (Ef) and P. aeruginosa (Pa).
(§2) MICs were determined using the Clinical Laboratory and Standards Institute (CLSI) Broth Microdilution Method with slight modification. Clinical and Laboratory Standards Institute (2012). “Methods for dilution antimicrobial susceptibility tests for bacteria that grow aerobically; approved standard, 9th ed. M07-A9. Clinical and Laboratory Standards Institute, Wayne, PA.” Serial two-fold dilutions of compounds are prepared in sterile clear round-bottom 96-well plates.
(§3) To prepare microdilution trays, two-fold dilutions of antimicrobial agent are prepared in growth medium: Cation-Adjusted Mueller-Hinton Broth (CAMHB), or CAMHB supplemented with sodium bicarbonate (25 mM final concentration prepared from a 1.0 M stock solution) or CAMHB supplemented with heat inactivated human serum (Fisher Cat. #BP2657100) 0-50% by adding 200 μL of the highest concentration to be tested (64 μg/mL, for example) in row A, mixing and transferring 100 μL from row A to 100 μL growth medium in row B, then repeating the mixing and transferring through row H of the 96-well plate, discarding the excess 100 μL remaining. This slight modification to the CLSI protocol enables evaluation of MICs for 3 compounds per plate in triplicate, albeit with only 8 compound dilutions (CLSI protocol enables 2 compounds in triplicate with 10 dilutions). Bacterial suspensions are added to a final concentration of 5×10^4 CFU/well by adding 5 μL of a 1:10 dilution of a 0.5 McFarland suspension (1×10^8 CFU/mL) for each bacterium evaluated. Bacterial suspensions were prepared using the growth method described by CLSI. Well-isolated colonies (3-5 from an agar plate) were selected using a sterile loop and used to inoculate a tube containing 4 mL of CAMHB. The cultures are incubated at 35±2° C. until it achieves or exceeds the turbidity of the 0.5 McFarland standard, determined by measuring A600nm (usually two to six hours). When growth exceeds a 0.5 McFarland standard, the turbidity is adjusted with broth to be equivalent to a 0.5 McFarland standard.

[2] = test system: E. faecalis (Ef); test: Broth microdilution MIC, E. faecalis; type: cell-based; details: Enterococcus faecalis, read-out: Ef + bicarb 25 (MIC)
Protocol: as §1, §2, §3

[3] = test system: E. coli S30 extract; test: E. coli S30 extract: inhibition of bacterial protein synthesis (luciferase); type: biochemical; details: 37° C. 1 hour
Protocol: E. coli S30 extract: Inhibition of bacterial protein synthesis was determined using the E. coli S30 Extract System for Circular DNA (Promega catalog #L-2010) and Luciferase Assay Reagent (Promega catalog #E1500) with slight modifications to a published protocol. Fyfe, C., Sutcliffe, J. A. and Grossman, T. H. (2012) “Development and characterization of a Pseudomonas aeruginosa in vitro coupled transcription-translation assay system for evaluation of translation inhibitors” J. Microbiol. Methods 90(3), 256-261.
Compounds were serial diluted in 0.5 mL microcentrifuge tubes by mixing and transferring 50 μL from the highest concentration to 50 μL of water, mixing and transferring 50 μL of this 2-fold dilution to 50 μL of water. This mixing and transferring was repeated so that there are a total of 8 tubes with serial dilutions of compound at 10× the desired screening concentration that are ultimately diluted to 1× by the addition of S30 luciferase synthesis mixture. Serial dilutions of compounds were added (2 μL) to wells in a black round bottom 96-well plate. Water (2 μL) was used as a “no inhibitor” control in 4 wells/plate. No DNA control reaction mixture (20 μL; see below) was used as a control in 4 wells/plate for background luminescence. S30 luciferase synthesis mixture (18 μL; see below) was added to wells with compounds or water mixture and incubated at 37° C. for 1 hour. Reactions were stopped by transferring to 4° C. refrigerator for 5 minutes then 25 μL of luciferase activity mix was added. Luminescence was measured using a BioTek Synergy HTX plate reader. % Inhibition was determined relative to no inhibitor controls.
• 445 μL S30 extract, circular • 712 μL S30 Premix without amino acids • 4.45 μL pBESTluc™ DNA (1 μg/μL) • 78 μL complete amino acid mixture • 267 μL water
• 20 μL S30 extract, circular • 32 μL S30 Premix without amino acids • 7 μL complete amino acid mixture • 21 μL water

[4] = target: Rabbit Reticulocyte Lysate; test: Rabbit Reticulocyte Lysate: inhibition of eukaryotic protein synthesis (luciferase); type: biochemical; details: 30° C. 90 minutes, read-out: Retic. IC50
Protocol: Inhibition of eukaryotic protein synthesis was determined using the Rabbit Reticulocyte Lysate System, Nuclease-Treated from Promega (catalog #L-4960) with slight modifications to the manufacturer's protocol. Compounds were serial diluted in 0.5 mL microcentrifuge tubes by mixing and transferring 50 μL from the highest concentration to 50 μL of water, mixing and transferring 50 μL of this 2-fold dilution to 50 μL of water. This mixing and transferring was repeated so that there are a total of 8 tubes with serial dilutions of compound at 10× the desired screening concentration that are ultimately diluted to 1× by the addition of rabbit reticulocyte luciferase synthesis mixture. Serial dilutions of compounds were added ([…]) to wells in a black round bottom 96-well plate. Water (2.5 μL) was used as a “no inhibitor” control in 4 wells/plate. No RNA control reaction mixture ([…]; see below) was used as a control in 4 wells/plate for background luminescence. Rabbit reticulocyte luciferase synthesis mixture (22.5 μL; see below) was added to wells with compounds or water mixture and incubated at 30° C. for 90 minutes. Luciferase assay reagent (25 μL) was added with luminescence measured using a BioTek Synergy HTX plate reader. % Inhibition was determined relative to no inhibitor controls.
• 1,000 μL rabbit reticulocyte lysate • 5.7 μL Luciferase Control RNA (1 μg/μL) • 26 μL complete amino acid mixture • 395 μL water
• 70 μL rabbit reticulocyte lysate • 2 μL complete amino acid mixture • 28 μL water

[5] = test system: S. aureus (Sa); test: Broth microdilution MIC, S. aureus; type: cell-based; details: Staphylococcus aureus, read-out: Sa + bicarb 25 (MIC)
Protocol: as §1, §2, §3

[6] = test system: P. aeruginosa (Pa); test: Broth microdilution MIC, P. aeruginosa; type: cell-based; details: Pseudomonas aeruginosa, read-out: Pa + bicarb 25 (MIC)
Protocol: as §1, §2, §3

[7] = test system: E. coli (Ec); test: Broth microdilution MIC, E. coli; type: cell-based; details: Escherichia coli, read-out: E. coli + bicarb 25 (MIC)
Protocol: as §1, §2, §3

Row | SMILES | MIC [1] | MIC [2] | IC50 [3] | IC50 [4] | MIC [5] | MIC [6] | MIC [7]
1 | CC1(N)CCN(CC2CCC(n3ccc(NC(=O)N4CCN(C(=O)C(C)(C)N)CC4)nc3=O)CC2)CC1 (stereo not shown) [Compound 15, 4-(2-amino-2-methylpropanoyl)-N-(1-(4-((4-amino-4-methylpiperidin-1-yl)methyl)cyclohexyl)-2-oxo-1,2-dihydropyrimidin-4-yl)piperazine-1-carboxamide hydrochloride salt] | > 32 µg/mL | > 32 µg/mL | < 0.5 µM | ≥ 1 µM | – | – | –
2 | CC(C)(N)C(=O)N1CCN(C(=O)Nc2ccn(C3=CCC(CN4CC5CC5(N)C4)CC3)c(=O)n2)CC1 (stereo not shown) [Compound 29, 4-(2-Amino-2-methylpropanoyl)-N-(1-(4-((1-amino-3-azabicyclo [3.1.0]hexan-3-yl)methyl)cyclohex-1-en-1-yl)-2-oxo-1,2-dihydropyrimidin-4-yl)piperazine-1-carboxamide hydrochloride salt] | – | – | 0.5 to 1 µM | – | – | – | –
3 | CC(C)(N)C(=O)N1CCN(C(=O)Nc2ccn(C3CCC(CN4CC(N)C4)CC3)c(=O)n2)CC1 (stereo not shown) [Compound 10, 4-(2-Amino-2-methylpropanoyl)-N-(1-(4-((3-aminoazetidin-1-yl)methyl)cyclohexyl)-2-oxo-1,2-dihydropyrimidin-4-yl)piperazine-1-carboxamide hydrochloride salt] | – | – | ≥ 1 µM | ≥ 1 µM | – | – | –
4 | CC1(N)CCN(CC2CC=C(n3ccc(NC(=O)N4CCN(C(=O)C(C)(C)N)CC4)nc3=O)CC2)CC1 (stereo not shown) [Compound 27, 4-(2-Amino-2-methylpropanoyl)-N-(1-(4-((4-amino-4-methylpiperidin-1-yl)methyl)cyclohex-1-en-1-yl)-2-oxo-1,2-dihydropyrimidin-4-yl)piperazine-1-carboxamide hydrochloride salt] | 8 to 32 µg/mL | < 8 µg/mL | < 0.5 µM | ≥ 1 µM | < 8 µg/mL | > 32 µg/mL | –
5 | CC(C)(N)C(=O)N1CCN(C(=O)Nc2ccn(C3=CCC(CN4C[C@@H]5[C@@H](N)[C@@H]5C4)CC3)c(=O)n2)CC1 (single isomer, unassigned) [Compound 34, 4-(2-Amino-2-methylpropanoyl)-N-(1-(4-(((exo)-6-amino-3-azabicyclo[3.1.0]hexan-3-yl)methyl)cyclohex-1-en-1-yl)-2-oxo-1,2-dihydropyrimidin-4-yl)piperazine-1-carboxamide hydrochloride salt] | – | – | < 0.5 µM | ≥ 1 µM | – | – | –
6 | CC(C)(N)C(=O)N1CCN(C(=O)Nc2ccn(C3=CCC(CN4C[C@@H]5[C@H](N)[C@@H]5C4)CC3)c(=O)n2)CC1 (stereo partly drawn) [Compound 22, endo-4-(2-Amino-2-methylpropanoyl)-N-(1-(4-((6-amino-3-azabicyclo[3.1.0]hexan-3-yl)methyl)cyclohex-1-en-1-yl)-2-oxo-1,2-dihydropyrimidin-4-yl)piperazine-1-carboxamide hydrochloride salt] | < 8 µg/mL | 8 to 32 µg/mL | < 0.5 µM | ≥ 1 µM | < 8 µg/mL | > 32 µg/mL | –
7 | CC(C)(N)C(=O)N1CCN(C(=O)Nc2ccn(C3=CCC(CN4CCC(N)CC4)CC3)c(=O)n2)CC1 (stereo not shown) [Compound 28, 4-(2-Amino-2-methylpropanoyl)-N-(1-(4-((4-aminopiperidin-1-yl)methyl)cyclohex-1-en-1-yl)-2-oxo-1,2-dihydropyrimidin-4-yl)piperazine-1-carboxamide hydrochloride salt] | > 32 µg/mL | > 32 µg/mL | 0.5 to 1 µM | ≥ 1 µM | – | – | –
8 | CC(C)(N)C(=O)N1CCN(C(=O)Nc2ccn(C3=CCC(CN4CCCC(N)CC4)CC3)c(=O)n2)CC1 (single isomer, unassigned) [Compound 42, 4-(2-Amino-2-methylpropanoyl)-N-(1-(4-((4-aminoazepan-1-yl)methyl)cyclohex-1-en-1-yl)-2-oxo-1,2-dihydropyrimidin-4-yl)piperazine-1-carboxamide hydrochloride salt] | – | – | < 0.5 µM | ≥ 1 µM | – | – | –
9 | CC1(N)CCN(CC2CC=C(n3ccc(NC(=O)N4CCN(C(=O)C(C)(C)N)CC4)nc3=O)CC2)CC1 (single isomer, unassigned) [Compound 38, 4-(2-Amino-2-methylpropanoyl)-N-(1-(4-((4-amino-4-methylpiperidin-1-yl)methyl)cyclohex-1-en-1-yl)-2-oxo-1,2-dihydropyrimidin-4-yl)piperazine-1-carboxamide hydrochloride salt] | – | – | < 0.5 µM | ≥ 1 µM | – | – | –
10 | CC(C)(N)C(=O)N1CCN(C(=O)Nc2ccn(C3=CCC(CN[C@H]4CC[C@H](N)CC4)CC3)c(=O)n2)CC1 (single isomer, unassigned) [Compound 40, trans-4-(2-Amino-2-methylpropanoyl)-N-(1-(4-(((4-aminocyclohexyl)amino)methyl)cyclohex-1-en-1-yl)-2-oxo-1,2-dihydropyrimidin-4-yl)piperazine-1-carboxamide hydrochloride salt] | – | – | < 0.5 µM | ≥ 1 µM | – | – | –
11 | CC(C)(N)C(=O)N1CCN(C(=O)Nc2ccn([C@H]3CC[C@H](CN(CCF)[C@H]4CC[C@H](N)CC4)CC3)c(=O)n2)CC1 [Compound 49, trans-trans-4-(2-amino-2-methylpropanoyl)-N-(1-(4-(((4-aminocyclohexyl)(2-fluoroethyl)amino)methyl)cyclohexyl)-2-oxo-1,2-dihydropyrimidin-4-yl)piperazine-1-carboxamide hydrochloride salt] | > 32 µg/mL | 8 to 32 µg/mL | < 0.5 µM | ≥ 1 µM | < 8 µg/mL | – | < 8 µg/mL
